Like-named read-outs stand apart in the source and are kept apart here.
Assays:
[1] = tested on: type II PKA holoenzyme; assay: type II PKA holoenzyme activation; type: biochemical; settings: 30 μM, presence and absence of 10 μM cAMP
[2] = molecular target: T1, Epac1 (Homo sapiens, UniProt O95398); assay: biochemical; settings: for IC50: read-out: IC50, Epac1 GEF activity
T1 sequence (O95398 191-923 limits assumed): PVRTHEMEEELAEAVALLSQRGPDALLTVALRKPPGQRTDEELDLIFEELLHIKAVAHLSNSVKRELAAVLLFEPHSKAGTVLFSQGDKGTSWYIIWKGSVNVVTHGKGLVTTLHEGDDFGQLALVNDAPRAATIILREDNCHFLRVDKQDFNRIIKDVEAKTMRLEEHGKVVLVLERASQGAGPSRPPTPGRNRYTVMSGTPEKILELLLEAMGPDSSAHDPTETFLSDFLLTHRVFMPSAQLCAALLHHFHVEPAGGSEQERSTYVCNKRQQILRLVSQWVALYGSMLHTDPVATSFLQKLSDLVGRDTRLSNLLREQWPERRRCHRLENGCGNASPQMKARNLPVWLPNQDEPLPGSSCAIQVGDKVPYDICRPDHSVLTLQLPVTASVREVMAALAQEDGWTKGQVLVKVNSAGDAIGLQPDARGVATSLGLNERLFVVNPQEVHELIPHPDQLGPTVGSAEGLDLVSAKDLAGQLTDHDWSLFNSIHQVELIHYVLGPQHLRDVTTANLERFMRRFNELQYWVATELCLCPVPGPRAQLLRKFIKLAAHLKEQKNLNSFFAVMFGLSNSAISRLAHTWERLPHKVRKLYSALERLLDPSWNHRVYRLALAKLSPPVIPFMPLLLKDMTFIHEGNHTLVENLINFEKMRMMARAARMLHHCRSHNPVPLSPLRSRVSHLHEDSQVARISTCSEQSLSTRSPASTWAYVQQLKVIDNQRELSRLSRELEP
Text: FIGS. 4-8. […] Variations of relative fluorescence units (RFU) were studied as a function of time and fitted to single exponentials.

[3] = tested on: type I PKA holoenzyme; assay: type I PKA holoenzyme activation; type: biochemical; settings: 30 μM, presence and absence of 10 μM cAMP
[4] = tested on: isolated adult cardiomyocytes; assay: hypoxia-reoxygenation injury of isolated adult cardiomyocytes (LDH release); type: cell-based, mouse
[5] = tested on: neonatal rat ventricular myocytes; assay: cytotoxicity in cultured cells; type: cell-based; settings: various types of cultured cells including neonatal rat ventricular myocytes
Description: Neonatal rat ventricular myocytes (NRVM) isolation: Neonatal rats of 1-2 days old were euthanized by decapitation. The heart was excised and the atria were removed.

[6] = molecular target: T2, Epac1 (Homo sapiens, UniProt O95398); assay: Rap1-GTP in HEK293 cells transfected with Epac1; type: cell-based; set-up: expressed in transfected cells; host or cells: HEK293; settings: 20 μM, 30 min preincubation; 8-CPT-AM 10 μM, 10 min
T2 sequence (O95398 1-923): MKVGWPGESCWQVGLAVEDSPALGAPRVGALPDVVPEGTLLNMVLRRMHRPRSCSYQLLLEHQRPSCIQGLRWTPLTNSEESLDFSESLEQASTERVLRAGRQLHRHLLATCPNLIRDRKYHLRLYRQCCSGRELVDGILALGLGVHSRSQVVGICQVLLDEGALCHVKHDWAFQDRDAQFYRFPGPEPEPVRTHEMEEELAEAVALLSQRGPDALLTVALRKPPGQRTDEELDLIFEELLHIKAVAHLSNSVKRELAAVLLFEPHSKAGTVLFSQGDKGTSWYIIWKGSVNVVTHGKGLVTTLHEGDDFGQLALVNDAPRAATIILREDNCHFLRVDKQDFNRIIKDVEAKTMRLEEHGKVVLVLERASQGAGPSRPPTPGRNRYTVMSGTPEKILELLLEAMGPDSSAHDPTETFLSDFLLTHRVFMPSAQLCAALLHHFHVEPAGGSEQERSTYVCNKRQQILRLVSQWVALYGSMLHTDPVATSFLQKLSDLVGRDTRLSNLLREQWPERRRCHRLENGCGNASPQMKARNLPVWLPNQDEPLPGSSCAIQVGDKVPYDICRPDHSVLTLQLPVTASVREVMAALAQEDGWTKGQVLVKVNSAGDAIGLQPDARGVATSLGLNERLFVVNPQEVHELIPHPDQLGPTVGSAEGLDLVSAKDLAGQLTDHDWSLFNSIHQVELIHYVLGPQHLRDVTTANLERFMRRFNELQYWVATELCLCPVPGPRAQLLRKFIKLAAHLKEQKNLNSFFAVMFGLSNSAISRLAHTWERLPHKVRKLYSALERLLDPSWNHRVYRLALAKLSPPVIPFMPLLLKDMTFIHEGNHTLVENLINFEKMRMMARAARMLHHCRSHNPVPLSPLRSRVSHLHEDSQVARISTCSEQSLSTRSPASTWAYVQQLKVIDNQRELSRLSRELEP
Description: FIGS. 9-13. Amounts of Rap1-GTP (n=5 in each group, mean±S.E.M) were determined in HEK293 cells transfected with Epac1 (FIGS. 9-11), Epac2A (FIG. 12) or Epac2B (FIG. 13). Cells were preincubated or not with AM-001 (FIGS. 9, 12, and 13), AM-002 (FIG. 10) or AM-003 (FIG. 11) (20 μM, 30 min) and were then treated or not with 8-CPT-AM (10 μM for Epac1 activation and 20 μM for Epac2A activation) or S-220 (50 μM for Epac2B activation) for 10 min. ESI-05 was used as positive control of Epac2A inhibition. Representative immunoblots are shown. […], *[…], ***p<0.001, ****p<0.0001, versus indicated values, one way ANOVA, Bonferroni comparison test.
Human Embryonic Kidney cells line (HEK293): HEK293 cells were maintained is in minimal essential medium with FBS (10%) and penicillin-streptomycin (1%). All media, sera, and antibiotics used in cell culture were purchased from Invitrogen.
The human Epac1/Epac2 expression vector was a gift from Dr J. L. Bos. Cells were transfected using Lipofectamine 2000 (Invitrogen) according to the manufacturer's instructions. HEK293 cells were maintained in MEM with FBS (Foetal Bovine Serum; 10%) and penicillin-streptomycin (1%). All media, sera and antibiotics used in cell culture were purchased from Invitrogen (Cergy Pontoise, France). Transient transfection experiments were performed with Lipofectamine 2000 (Invitrogen Life Technologies) in the presence of various amounts of plasmid constructs according to the manufacturer's instructions.
This cell line is commonly used for the evaluation of Epac pharmacological modulators on the cellular signaling of ectopically expressed Epac1 and Epac2 isoforms. […] Next, the inventors investigated the effect of 8-CPT-AM on the two Epac2 splice variants, Epac2A and Epac2B (FIGS. 12-13).

[7] = tested on: mice; settings: single i.v. bolus 8 mg/kg 5 min before reperfusion; 45 min occlusion, 24 h reperfusion
Description: Statistical significance was determined by two-way ANOVA followed by Bonferroni post-test or t-test. *p<0.01, **p<0.01, ***p<0.001, versus indicated values
Mice were anesthetized with intraperitoneal ketamine (60 mg/kg) and xylazine (6 mg/kg), intubated and ventilated mechanically. Anesthesia was maintained throughout the chirurgical procedure with 1.5% isoflurane. Body temperature was maintained at 37° C. A left thoracotomy was performed in order to enable coronary artery occlusion with a 7-0 Prolene thread placed around the left coronary artery for 45 min, followed by 24 h of reperfusion. […] Myocardial ischemia was confirmed by the presence of regional cyanosis. Reperfusion was confirmed by visualization of a hyperemic response. At this point, the chest was closed in layers. 24 h after reperfusion, mice were anesthetized again, the coronary artery was reoccluded at the previous site, and the heart was excised after Evans blue perfusion. The area at risk and the infarct area were respectively determined by Evans blue and 2,3,5-triphenyltetrazolium chloride (TTC) staining. The area at risk was identified as the non-blue region and expressed as a percentage of the left ventricle weight. The infarcted area was identified as the TTC negative zone and expressed as a percentage of area at risk.

Q: With `Nc1c(C(=O)Nc2ccc(F)cc2)sc2nc(-c3cccs3)cc(-c3ccccc3)c12` [AM-001, 3-amino-N-(4-fluorophenyl)-4-phenyl-6-(thiophen-2-yl)thieno[2,3-b]pyridine-2-carboxamide] as the compound, how does the “effect on type II PKA holoenzyme activation” value [1] read?
A: The value was “did not influence”.

Q: And the “effect on Epac1 GEF (exchange) activity” value ([2]; 30 μM Sp-8-CPT, 20 μM inhibitor)?
A: Its value is “prevented Epac1 GEF activity”.

Q: And the IC50 ([2]; Sp-8-CPT at its EC50 for the isoform)?
A: Its IC50 is 47.8 ± 1.1 µM.

Q: What about the IC50 ([2]; saturating concentration of Sp-8-CPT) of the same compound?
A: Its IC50 is 48.5 ± 1 µM.

Q: And the “effect on type I PKA holoenzyme activation” value [3]?
A: The value was “did not influence”.

Q: And the “effect on 8-CPT-AM-induced cardiomyocyte death and hypertrophy” value ([4]; AM-001 20 μM, 8-CPT-AM 10 μM)?
A: The value was “inhibited the effect”.

Q: And the “cardiomyocyte survival by LDH release” value ([4]; HX+R condition, 20 μM, 30 min pretreatment, vs control cells)?
A: Its value is “significantly increased cardiomyocyte survival”.

Q: What about the cytotoxicity [5] of the same compound?
A: The cytotoxicity was “no apparent cytotoxicity”.

Q: And the “inhibition of Epac1-induced Rap1 activation” value [6]?
A: The value was “prevented Epac1-induced Rap1 activation”.

Q: And the “ratio of infarct size to area-at-risk” value [7]?
A: The value was 36±3%.

— patent publication US20210230179A1, “THIENO[2,3-B]PYRIDINE DERIVATIVES AS EPAC INHIBITORS AND THEIR PHARMACEUTICAL USES” (INSTITUT NATIONAL DE LA SANTE ET DE LA RECHERCHE MEDICALE …, priority 2018, published 2021)
